Test results: patent publication US20200190592A1, “PME-1 AS A BIOMARKER TO PREDICT AND DIAGNOSE AN INCREASED RISK OF ENDOMETRIAL CANCER AND GENE SILENCING OF PME-1 TO INHIBIT EPITHELIAL TO MESENCHYMAL TRANSITION” (Medical Diagnostic Laboratories, L.L.C., priority 2018, published 2020)
Entries after “also recorded” stand apart in the source; their conditions may differ.

Tests used:
Type in all cases: cell-based, human
PME-1 = test: Western blot of PME-1 protein in RL95-2 cells; details: GAPDH loading control, listed as shRNA #2
Description: We prepared RL95-2 cell lines expressing empty vector (control), over-expressing PME-1 (+PME-1), or expressing shRNA against PPME1, the gene that codes for PME-1 protein (−PME-1). Using these cells, we confirmed the appropriate level of PME-1 via real-time RT-PCR (data not shown) and Western blot analysis (FIG. 8). GAPDH was used as a loading control.
We also prepared two different shRNAs targeted against PME-1.
Lentivirus was produced in HEK293T cell lines with pLKO shRN vectors (Thermo Scientific, cat. no. RHS4533; Waltham, Mass.) and pCDH-CuO-GFP-Puro vectors (System Biosciences, Inc., cat. no. QM513B-1; Mountain View, Calif.) with pPACKH1 packaging plasmid (System Biosciences, Inc., cat, no. LV050A-1). shRNA sequences are in the Table 2. Lentivirus was collected and concentrated with Peg-IT concentrating solution (System Biosciences, Inc.). 5×10^6 ifu/ml lentivirus was added to cell cultures with growth media and 8 μg/ml PolyBrene (Sigma Aldrich). Media was changed to full growth media after 24 hrs and to selection media containing antibiotic after 48 hrs (5 μg/ml puromycin) (Invivogen) for 10 days.
15 μg of protein was used for western analysis. […]

PP2A = PP2A phosphatase assay on RL95-2 whole cell extract; details: RL95-2 cells, 500 μg whole cell extract, vs non-targeting control
Method: Because PME-1 is a known inhibitor of PP2A, we confirmed in this study that depletion of PME-1 by siRNA led to an increase in PP2A activity in cells. To do so, we treated RL95-2 cells with either non-targeting siRNA (Control) or siRNA against PPME1. PP2A activity was monitored using a phosphatase assay (R&D Systems Duo IC Set phosphatase assay kit). In the phosphatase assay, we used 500 μg of whole cell extract and followed the manufacturer's recommendations.
Whole cell lysates were used with the DuoSet IC PP2A Phosphatase Assay Kit (R&D Systems). Procedure was carried out as per kit instructions with 500 μg protein and the absorbance was measured at 620 nm. The assay was repeated twice with similar results.

RL95-2 cells [1] = test: Immunofluorescence for phosphorylated histone H3 (mitotic cells); details: −PME-1 cells compared to control cells
Method: Endometrial cancer cells were stained for phosphorylated histone H3 on serine 10, a marker of mitotic cells, followed by counterstaining with DAPI (FIG. 12) to identify all cells.
For analysis of patient samples, tissues were blocked for 2 hr with 10% FBS in TBST for at RT, incubated with each primary antibody (together) overnight at 4° C., washed three times for 15 min in TBST, incubated with each secondary fluorescent antibody (together) for 1 hr at RT, washed again as above, stained with DAPI and mounted with cover-slips using vectashield mounting media (Vector Labs). Primary antibodies used were for PME-1 (Santa Cruz), E-cadherin (Millipore), and vimentin (Genscript). 1×10^3RL95-2 cells were plated on a chamber slide and were incubated overnight at 37° C. Slides were fixed with 4% paraformaldehyde (PFA) on ice for two hours. The cells were incubated with the primary antibody to Histone 3 (pH3) phosphorylated at Ser10 (1:200, Cell Signaling Technologies) overnight and developed with the secondary anti-rabbit Alexa-Fluor 555 antibody (Cell Signaling Technologies). DAPI was used as a nuclear counter-stain (Sigma Aldrich). Images were taken with the Nikon Eclipse TE2000 at 20×.

RL95-2 cells [2] = test: Colony forming / invasive growth assay in Matrigel; details: RL95-2 in Matrigel
Method: To determine if PME-1 contributes to the more invasive and metastatic phenotypes, we performed a colony forming assay in matrigel.
The 3D On Top Matrigel Assay was completed in 24 well dishes as described previously {Lee, 2007 #1577}. Briefly, the bottoms of 24 well dishes were coated with 50 μl BD Matrigel Basement Matrix Phenol Red Free (BD Biosciences cat. #356237) and allowed to solidify at 37° C. 10^5 cells were suspended in 250 μl chilled medium containing either 10 ng/ml of TGF-b or vehicle and allowed to settle at 37° C. for 30 minutes. Chilled medium containing 10% of Matrigel was added by pipetting gently down the sidewall of the well and incubated at 37° C. for ten days changing top medium every second day. Colony counts were performed on the tenth day, averages were taken from three fields of view using a 10× objective. Experiment was repeated three times.

WNT3 and WNT3A = test: qRT-PCR of WNT3 and WNT3A expression in RL95-2 cells; details: RL95-2, normalized to 18S
Method: Using RL95-2 endometrial cancer cells, we overexpressed PME-1 (FIG. 21A) or depleted PME-1 with shRNA (FIG. 21B) and confirmed that PME-1 was appropriately expressed.
Total RNA was extracted with Qiagen RNAEasy kit from RL95-2 cells. cDNA was synthesized using 500 ng-1 μg of RNA and SuperScript VILO c-DNA mix (Life Technologies). Taqman probes and PCR-mix were purchased from Life Technologies. All samples were run in triplicates. Results are representative of three independent experiments in which genes of interest were normalized to the house-keeping gene, 18S or GAPDH, where fold-change was calculated using the ddCt method.

## shPPME1 no. 2: shRNA targeting PPME1, SEQ ID NO: 2: GCAGCGATTATTAGTAGAGTT, bp 289-309; used for all subsequent experiments (guide GCAGCGATTATTAGTAGAGTT; listed as Homo sapiens)
PME-1
  PME-1 levels via Western blot analysis: significantly decreased; also recorded: best depletion
PP2A
  increase in PP2A activity: 30 fold
RL95-2 cells [1]
  decreased proliferation (phospho-histone H3 positive cells): ~30%
RL95-2 cells [2]; 10 days, vs control cells
  decrease in colony formation: 50%
RL95-2 cells [2]; −TGF-β, compared to control cells
  colonies number and size: fewer and smaller colonies
WNT3 and WNT3A
  WNT3 and WNT3A expression: significantly decreased
